Laboratory results published in patent US20240124444A1 (Celgene Corporation, priority 2020, published 2024).

Tested on: C. parvum strain UGA1
Assay: C. parvum growth inhibition assay (Nluc luminescence in HCT-8 cells)
Assay type: cell-based, Cryptosporidium parvum
Conditions: Cryptosporidium parvum; for EC50: HCT-8, 48 h, C. parvum growth inhibition in HCT-8 cells, 48 hours, 6 concentrations 10-0.04 μM; for inhibition at 1 µM / inhibition at 10 µM: HCT-8; for inhibition at 1 µM: single point inhibition @ 1 uM, read-out: % inh @ 1 uM C. parvum; for inhibition at 10 µM: single point inhibition @ 10 uM, read-out: % inh @ 10 uM C. parvum

| SMILES | EC50 [µM] | inhibition at 1 µM [%] | inhibition at 10 µM [%] |
| --- | --- | --- | --- |
| O=S(=O)(Nc1cc2[nH]c(C(F)(F)F)cc2cn1)C1CC1 [Example 106, N-(2-(trifluoromethyl)-1H-pyrrolo[3,2-c]pyridin-6-yl)cyclopropanesulfonamide] | > 1 | – | – |
| COC(=O)Nc1cc2[nH]c(C(F)(F)F)cc2cn1 [Example 107, methyl 2-(trifluoromethyl)-1H-pyrrolo[3,2-c]pyridin-6-ylcarbamate] | > 1 | – | – |
| CN(C)C(=O)Nc1cc2[nH]c(C(F)(F)F)cc2cn1 [Example 108, 1,1-dimethyl-3-(2-(trifluoromethyl)-1H-pyrrolo[3,2-c]pyridin-6-yl)urea] | > 1 | – | – |
| CN1CCC(C(=O)Nc2cc3[nH]c(C(F)(F)F)cc3cn2)CC1 [Example 109, 1-methyl-N-(2-(trifluoromethyl)-1H-pyrrolo[3,2-c]pyridin-6-yl)piperidine-4-carboxamide] | > 1 | – | – |
| O=C(Nc1cc2[nH]c(-c3cnc(C(F)(F)F)o3)cc2cn1)C1CC1 [Example 110, N-(2-(2-(trifluoromethyl)oxazol-5-yl)-1H-pyrrolo[3,2-c]pyridin-6-yl)cyclopropanecarboxamide] | > 1 | – | – |
| O=C(Nc1cc2[nH]c(C(F)(F)F)cc2cn1)C1CCCC1 [Example 111, N-(2-(trifluoromethyl)-1H-pyrrolo[3,2-c]pyridin-6-yl)cyclopentanecarboxamide] | > 1 | – | – |
| Cc1cc(-c2cc3cnc(NC4CCN(C)CC4)cc3[nH]2)ccn1 [Example 112, N-(1-methylpiperidin-4-yl)-2-(2-methylpyridin-4-yl)-1H-pyrrolo[3,2-c]pyridin-6-amine] | > 1 | – | – |
| Cc1cc(-c2cc3cnc(NC4COC4)cc3[nH]2)ccn1 [Example 113, 2-(2-methylpyridin-4-yl)-N-(oxetan-3-yl)-1H-pyrrolo[3,2-c]pyridin-6-amine] | > 1 | – | – |
| Cc1cc(-c2cc3cnc(N(C)C4CCOCC4)cc3[nH]2)ccn1 [Example 114, N-methyl-2-(2-methylpyridin-4-yl)-N-(tetrahydro-2H-pyran-4-yl)-1H-pyrrolo[3,2-c]pyridin-6-amine] | > 1 | – | – |
| Cc1c[nH]c2cc(NC(=O)C3CC3)ncc12 [Example 115, N-(3-methyl-1H-pyrrolo[3,2-c]pyridin-6-yl)cyclopropanecarboxamide] | > 1 | – | – |
| O=C(Nc1cc2c(cn1)cc(C(F)(F)F)n2CCO)C1CC1 [Example 116, N-(1-(2-hydroxyethyl)-2-(trifluoromethyl)-1H-pyrrolo[3,2-c]pyridin-6-yl)cyclopropanecarobxamide] | > 1 | – | – |
| Cc1cc(-c2cc3cnc(NC4CCN(C)CC4)cc3n2C)ncn1 [Example 117, 1-methyl-N-(1-methylpiperidin-4-yl)-2-(6-methylpyrimidin-4-yl)-1H-pyrrolo[3,2-c]pyridin-6-amine] | > 1 | – | – |
| Cc1cc(-c2cc3cnc(NC(=O)C(C)C)cc3n2C)ncn1 [Example 118, N-(1-methyl-2-(6-methylpyrimidin-4-yl)-1H-pyrrolo[3,2-c]pyridin-6-yl)isobutyramide] | > 1 | – | – |
| CC(=O)Nc1cc2c(cn1)cc(-c1cc(C)ncn1)n2C [Example 119, N-(1-methyl-2-(6-methylpyrimidin-4-yl)-1H-pyrrolo[3,2-c]pyridin-6-yl)acetamide] | > 1 | – | – |
| Cc1cc(-c2cc3cnc(NC4CCNCC4)cc3n2C)ncn1 [Example 120, 1-methyl-2-(6-methylpyrimidin-4-yl)-N-(piperidin-4-yl)-1H-pyrrolo[3,2-c]pyridin-6-amine] | > 1 | – | – |
| c1nc(NC2CCOCC2)cc2[nH]c(C3CCC3)cc12 [Example 121, 2-cyclobutyl-N-(tetrahydro-2H-pyran-4-yl)-1H-pyrrolo[3,2-c]pyridin-6-amine] | > 1 | – | – |
| CCn1c(-c2cc(C)ncn2)cc2cnc(NC(=O)C3CC3)cc21 [Example 122, N-(1-ethyl-2-(6-methylpyrimidin-4-yl)-1H-pyrrolo[3,2-c]pyridin-6-yl)cyclopropanecarboxamide] | > 1 | – | – |
| Cn1cnc(-c2cc3cnc(NC4CCOCC4)cc3[nH]2)c1 [Example 123, 2-(1-methyl-1H-imidazol-4-yl)-N-(tetrahydro-2H-pyran-4-yl)-1H-pyrrolo[3,2-c]pyridin-6-amine] | > 1 | – | – |
| Cc1cc(-c2cc3cnc(NC(=O)C4CC4)cc3n2CCN(C)C)ncn1 [Example 124, N-(1-(2-(dimethylamino)ethyl)-2-(6-methylpyrimidin-4-yl)-1H-pyrrolo[3,2-c]pyridin-6-yl)cyclopropanecarboxamide] | > 1 | – | – |

| SMILES | EC50 [µM] | inhibition at 1 µM [%] | inhibition at 10 µM [%] |
| --- | --- | --- | --- |
| Cc1cc(-c2cc3cnc(N)cc3n2C)ncn1 [Example 125, 1-methyl-2-(6-methylpyrimidin-4-y)-1H-pyrrolo[3,2-c]pyridin-6-amine] | > 1 | – | – |
| CNc1cc2c(cn1)cc(-c1cc(C)ncn1)n2C [Example 126, N,1-dimethyl-2-(6-methylpyrimidin-4-yl)-1H-pyrrolo[3,2-c]pyridin-6-amine] | > 1 | – | – |
| Cc1cc(-c2cc3cnc(NC(=O)CN(C)C)cc3n2C)ncn1 [Example 127, 2-(dimethylamino)-N-(1-methyl-2-(6-methylpyrimidin-4-yl)-1H-pyrrolo[3,2-c]pyridin-6-yl)acetamide] | > 1 | – | – |
| Cc1cc(-c2cc3cnc(NC(=O)CN4CCCC4)cc3n2C)ncn1 [Example 128, N-(1-methyl-2-(6-methylpyrimidin-4-yl)-1H-pyrrolo[3,2-c]pyridin-6-yl)-2-(pyrrolidin-1-yl)acetamide] | > 1 | – | – |
| Cn1c(-c2ccccn2)cc2cnc(NC(=O)C3CC3)cc21 [Example 129, N-(1-methyl-2-(pyridin-2-yl)-1H-pyrrolo[3,2-c]pyridin-6-yl)cyclopropanecarboxamide] | > 1 | – | – |
| Cn1c(-c2cc(C(F)(F)F)ncn2)cc2cnc(NC(=O)C3CC3)cc21 [Example 130, N-(1-methyl-2-(6-(trifluoromethyl)pyrimidin-4-yl)-1H-pyrrolo[3,2-c]pyridin-6-yl)cyclopropanecarboxamide] | > 1 | – | – |
| CC(C)n1cc(C(=O)Nc2cc3c(cn2)cc(-c2ccnc(NCC4CC4)n2)n3C)cn1 [Example 131, N-(2-(2-(cyclopropylmethylamino)pyrimidin-4-yl)-1-methyl-1H-pyrrolo[3,2-c]pyridin-6-yl)-1-isopropyl-1H-pyrazole-4-carboxmaide] | – | 0 to 33 | 67 to 100 |
| CC(C)n1cc(C(=O)Nc2cc3c(cn2)cc(-c2ccnc(NC4CC4)n2)n3C)cn1 [Example 132, N-(2-(2-(cyclopropylamino)pyrimidin-4-yl)-1-methyl-1H-pyrrolo[3,2-c]pyridin-6-yl)-1-isopropyl-1H-pyrazole-4-carboxamide] | – | 0 to 33 | 67 to 100 |
| Cn1cc(C(=O)Nc2cc3c(cn2)cc(-c2ccnc(NCCC(F)(F)F)n2)n3C)cn1 [Example 133, 1-methyl-N-(1-methyl-2-(2-(3,3,3-trifluoropropylamino)pyrimidin-4-yl)-1H-pyrrolo[3,2-c]pyridin-6-yl)-1H-pyrazole-4-carboxamide] | – | 0 to 33 | 67 to 100 |
| CC(C)CC(=O)Nc1cc2[nH]c(-c3ccncc3)cc2cn1 [Example 134, 3-methyl-N-(2-(pyridin-4-yl)-1H-pyrrolo[3,2-c]pyridin-6-yl)butanamide] | – | 0 to 33 | 67 to 100 |
| O=C(Nc1cc2[nH]c(-c3ccncc3)cc2cn1)[C@@H]1CCOC1 [Example 135, (R)-N-(2-(pyridin-4-yl)-1H-pyrrolo[3,2-c]pyridin-6-yl)tetrahydrofuran-3-carboxamide] | – | 0 to 33 | 67 to 100 |
| O=C(Nc1cc2[nH]c(-c3ccncc3)cc2cn1)C1CCCC1 [Example 137, N-(2-(pyridin-4-yl)-1H-pyrrolo[3,2-c]pyridin-6-yl)cyclopentanecarboxamide] | – | 0 to 33 | 67 to 100 |
| Cn1c(-c2ccncc2)cc2cnc(Nc3cnn(C4CCOCC4)c3)cc21 [Example 138, 1-methyl-2-(pyridin-4-yl)-N-(1-(tetrahydro-2H-pyran-4-yl)-1H-pyrazol-4-yl)-1H-pyrrolo[3,2-c]pyridin-6-amine] | – | 0 to 33 | 67 to 100 |
| CCOc1nccc(-c2cc3cnc(NC(=O)CC4COC4)cc3[nH]2)n1 [Example 139, N-(2-(2-ethoxypyrimidin-4-yl)-1H-pyrrolo[3,2-c]pyridin-6-yl)-2-(oxetan-3-yl)acetamide] | – | 0 to 33 | 67 to 100 |
| COc1cc(Nc2cc3[nH]c(-c4ccncc4)cc3cn2)cc(-n2cncn2)c1 [Example 140, N-(3-methoxy-5-(1H-1,2,4-triazol-1-yl)phenyl)-2-(pyridin-4-yl)-1H-pyrrolo[3,2-c]pyridin-6-amine] | – | 0 to 33 | 67 to 100 |
| CC(Oc1nccc(-c2cc3cnc(NC(=O)c4cnn(C)c4)cc3[nH]2)n1)C(F)F (stereo not drawn) [Example 141, N-(2-(2-(1,1-difluoropropan-2-yloxy)pyrimidin-4-yl)-1H-pyrrolo[3,2-c]pyridin-6-yl)-1-methyl-1H-pyrazole-4-carboxamide] | – | 0 to 33 | 67 to 100 |
| O=C(CC1CCOCC1)Nc1cc2[nH]c(-c3ccncc3)cc2cn1 [Example 143, N-(2-(pyridin-4-yl)-1H-pyrrolo[3,2-c]pyridin-6-yl)-2-(tetrahydro-2H-pyran-4-yl)acetamide] | – | 0 to 33 | 67 to 100 |
| Cn1cc(C(=O)Nc2cc3c(cn2)cc(-c2ccnc(NCC(F)F)n2)n3C)cn1 [Example 144, N-(2-(2-(2,2-difluroethylamino)pyrimidin-4-yl)-1-methyl-1H-pyrrolo[3,2-c]pyridin-6-yl)-1-methyl-1H-pyrazole-4-carboxmaide] | – | 0 to 33 | 67 to 100 |
| N#Cc1cc2cnc(Nc3cccc(-c4nc[nH]n4)c3)cc2[nH]1 [Example 145, 6-(3-(1H-1,2,4-triazol-3-yl)phenylamino)-1H-pyrrolo[3,2-c]pyridine-2-carbonitrile] | – | 0 to 33 | 67 to 100 |
